In brackets after ≈: the same amount, converted by molar mass. Entries after “also recorded” stand apart in the source; their conditions may differ. Where two headings read alike, the source gives them in different places.
How the values were obtained:
A. fumigatus (H1120) = experiment: MIC, micro-broth dilution; assay type: cell-based; conditions: Aspergillus fumigatus, 35° C., 24 hours, read-out: ANTIMICROBIAL ACTIVITY (MIC)
Experimental: (§1) The antimicrobial activity of the compounds according to the present invention were compared with the results obtained for squalamine as reported in Proc. Nat. Acad. Sci. USA 90:1354 (1993), supra, the disclosure of which is incorporated in toto herein. The data reported in the following table is the minimum inhibitory concentration (MIC) required for complete inhibition of microbial growth. The MIC was determined utilizing known micro-broth dilution methods in which inocula of 10^6 /ml of the test organism were incubated in 0.5× trypticase soy broth at 35° C. for 24 hours. MIC's were also tested under various pH conditions, with calcium chloride or magnesium chloride, or with immobilized horse serum.
(§2) The numbers in parentheses contained in the table correspond to accession numbers with the American Type Culture Collection (reference strains were either obtained from the American Type Culture Collection or from the Microbiology Laboratory at Memorial Sloan-Kettering Cancer Center; Bacterial strains were maintained on Columbia 5% sheep blood agar plates, and fungi were maintained on Sabouraud Dextrose agar plates).

A. fumigatus (H29709) = experiment: MIC, micro-broth dilution; assay type: cell-based; conditions: Aspergillus fumigatus, 35° C., 24 hours, read-out: ANTIMICROBIAL ACTIVITY (MIC)
Experimental: as §1, §2

C. albicans (90028) = experiment: MIC, micro-broth dilution; assay type: cell-based; conditions: Candida albicans, 35° C., 24 hours, read-out: ANTIMICROBIAL ACTIVITY (MIC)
Experimental: as §1, §2

C. neoformans (90012) = experiment: MIC, micro-broth dilution; assay type: cell-based; conditions: Cryptococcus neoformans, 24 h, read-out: ANTIMICROBIAL ACTIVITY (MIC)
Experimental: as §1, §2

C. neoformans (M68979) = experiment: MIC, micro-broth dilution; assay type: cell-based; conditions: Cryptococcus neoformans, 24 h, read-out: ANTIMICROBIAL ACTIVITY (MIC)
Experimental: as §1, §2

E. cloacae (13047) = experiment: MIC, micro-broth dilution; assay type: cell-based; conditions: Enterobacter cloacae, 35° C., 24 hours, read-out: ANTIMICROBIAL ACTIVITY (MIC)
Experimental: as §1, §2

E. coli (25922) = experiment: MIC, micro-broth dilution; assay type: cell-based; conditions: Escherichia coli, 35° C., 24 hours, read-out: ANTIMICROBIAL ACTIVITY (MIC)
Experimental: as §1, §2

E. faecalis (29212) = experiment: MIC, micro-broth dilution; assay type: cell-based; conditions: Enterococcus faecalis, 35° C., 24 hours, read-out: ANTIMICROBIAL ACTIVITY (MIC)
Experimental: as §1, §2

E. faecium (T6480-9) = experiment: MIC, micro-broth dilution; assay type: cell-based; conditions: Enterococcus faecium, 35° C., 24 hours, read-out: ANTIMICROBIAL ACTIVITY (MIC)
Experimental: as §1, §2

K. pneumoniae (13883) = experiment: MIC, micro-broth dilution; assay type: cell-based; conditions: Klebsiella pneumoniae, 24 h, read-out: ANTIMICROBIAL ACTIVITY (MIC)
Experimental: as §1, §2

P. aeruginosa (10145) = experiment: MIC, micro-broth dilution; assay type: cell-based; conditions: Pseudomonas aeruginosa, 35° C., 24 hours, read-out: ANTIMICROBIAL ACTIVITY (MIC)
Experimental: as §1, §2

P. aeruginosa (2853) = experiment: MIC, micro-broth dilution; assay type: cell-based; conditions: Pseudomonas aeruginosa, 24 h, read-out: ANTIMICROBIAL ACTIVITY (MIC)
Experimental: as §1, §2

P. vulgaris (13315) = experiment: MIC, micro-broth dilution; assay type: cell-based; conditions: Proteus vulgaris, 35° C., 24 hours, read-out: ANTIMICROBIAL ACTIVITY (MIC)
Experimental: as §1, §2

S. agalactiae (13813) = experiment: MIC, micro-broth dilution; assay type: cell-based; conditions: Streptococcus agalactiae, 35° C., 24 hours, read-out: ANTIMICROBIAL ACTIVITY (MIC)
Experimental: as §1, §2

S. aureus (25923) = experiment: MIC, micro-broth dilution; assay type: cell-based; conditions: Staphylococcus aureus, 35° C., 24 hours, read-out: ANTIMICROBIAL ACTIVITY (MIC)
Experimental: as §1, §2

S. aureus (29213) = experiment: MIC, micro-broth dilution; assay type: cell-based; conditions: Staphylococcus aureus, 24 h, read-out: ANTIMICROBIAL ACTIVITY (MIC)
Experimental: as §1, §2

S. aureus (H20809) = experiment: MIC, micro-broth dilution; assay type: cell-based; conditions: Staphylococcus aureus, read-out: ANTIMICROBIAL ACTIVITY (MIC)
Experimental: as §1, §2

S. epidermidis (12228) = experiment: MIC, micro-broth dilution; assay type: cell-based; conditions: Staphylococcus epidermidis, 35° C., 24 hours, read-out: ANTIMICROBIAL ACTIVITY (MIC)
Experimental: as §1, §2

S. marcescens (13880) = experiment: MIC, micro-broth dilution; assay type: cell-based; conditions: for MIC: Serratia marcescens, 24 h, read-out: ANTIMICROBIAL ACTIVITY (MIC)
Experimental: as §1, §2

S. pneumoniae (6305) = experiment: MIC, micro-broth dilution; assay type: cell-based; conditions: Streptococcus pneumoniae, 35° C., 24 hours, read-out: ANTIMICROBIAL ACTIVITY (MIC)
Experimental: as §1, §2

S. pyrogenes (19615) = experiment: MIC, micro-broth dilution; assay type: cell-based; conditions: 24 h, read-out: ANTIMICROBIAL ACTIVITY (MIC)
Experimental: as §1, §2

[1] = Hemolytic activity, minimal hemolytic concentration (MHC); assay type: cell-based, sheep; conditions: sheep, red blood cells;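 further: MCC here is the minimal hemolytic concentration (MHC)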
Experimental: Hemolytic activity of the squalamine mimics according to the present invention were also studied by incubating sheep red blood cells for 24 hours at 37° C. in saline (final concentration of 0.5%) with or without respective concentrations of the squalamine mimics. The minimal hemolytic concentration (MHC) was determined as the lowest concentration of a mimic that raised visible hemolysis.

[2] = system: various groups of microorganisms; experiment: Antimicrobial activity (MIC), all microorganisms tested; assay type: cell-based
Experimental: as §1, §2

Row | SMILES | MIC (A. fumigatus (H1120)) [µg/mL] | MIC (A. fumigatus (H29709)) [µg/mL] | MIC (C. albicans (90028)) [µg/mL] | MIC (C. neoformans (90012)) [µg/mL] | MIC (C. neoformans (M68979)) [µg/mL] | MIC (E. cloacae (13047)) [µg/mL] | MIC (E. coli (25922)) [µg/mL] | MIC (E. faecalis (29212)) [µg/mL] | MIC (E. faecium (T6480-9)) [µg/mL] | MIC (K. pneumoniae (13883)) [µg/mL] | MIC (P. aeruginosa (10145)) [µg/mL] | MIC (P. aeruginosa (2853)) [µg/mL] | MIC (P. vulgaris (13315)) [µg/mL] | MIC (S. agalactiae (13813)) [µg/mL] | MIC (S. aureus (25923)) [µg/mL] | MIC (S. aureus (29213)) [µg/mL] | MIC (S. epidermidis (12228)) [µg/mL] | MIC (S. marcescens (13880)) [µg/mL] | MIC (S. pneumoniae (6305)) [µg/mL] | MIC (S. pyrogenes (19615)) [µg/mL] | also measured
1 | C[C@H](CCC(=O)NCCCNCCCCNCCCN)[C@H]1CC[C@H]2[C@@H]3CC[C@@H]4CCCC[C@]4(C)[C@H]3CC[C@]12C [SM-19] | 3.13 (≈ 5.74 µM) | 3.13 (≈ 5.74 µM) | 3.13 (≈ 5.74 µM) | 0.78 (≈ 1.43 µM) | 0.78 (≈ 1.43 µM) | > 100 | 3.13 (≈ 5.74 µM) | 6.25 (≈ 11.5 µM) | 3.13 (≈ 5.74 µM) | 6.25 (≈ 11.5 µM) | > 100 | 12.5 (≈ 22.9 µM) | > 100 | 3.13 (≈ 5.74 µM) | 3.13 (≈ 5.74 µM) | 3.13 (≈ 5.74 µM) | 1.56 (≈ 2.86 µM) | > 100 | 0.78 (≈ 1.43 µM) | 3.13 (≈ 5.74 µM) | MIC (S. aureus (H20809); 24 h): 3.13 µg/mL (≈ 5.74 µM); MCC at 24 h [1]: 6.25 µg/mL; antimicrobial activity (in words) [2]: highly active
2 | C[C@H](CCC(=O)NCCNCCNCCN)[C@H]1CC[C@H]2[C@@H]3CC[C@@H]4C[C@H](O)CC[C@]4(C)[C@H]3CC[C@]12C [SM-27] | 100 (≈ 198 µM) | 100 (≈ 198 µM) | 25 (≈ 49.5 µM) | 3.13 (≈ 6.2 µM) | 3.13 (≈ 6.2 µM) | 25 (≈ 49.5 µM) | 3.13 (≈ 6.2 µM) | 12.5 (≈ 24.8 µM) | 12.5 (≈ 24.8 µM) | 6.25 (≈ 12.4 µM) | 25 (≈ 49.5 µM) | 12.5 (≈ 24.8 µM) | 12.5 (≈ 24.8 µM) | 3.13 (≈ 6.2 µM) | 6.25 (≈ 12.4 µM) | 6.25 (≈ 12.4 µM) | 3.13 (≈ 6.2 µM) | 12.5 (≈ 24.8 µM) | 3.13 (≈ 6.2 µM) | 1.56 (≈ 3.09 µM) | MIC (S. aureus (H20809); 24 h): 6.25 µg/mL (≈ 12.4 µM); activity against S. marcescens (S. marcescens (13880); in words): found even against S. marcescens; also recorded: effective against S. marcescens; MCC at 24 h [1]: 50 µg/mL
3 | C[C@H](CCC(=O)NCCCNCCCCNCCCN)[C@H]1CC[C@H]2[C@@H]3C[C@H](O)[C@@H]4C[C@H](O)CC[C@]4(C)[C@H]3CC[C@]12C [SM-28] | 25 (≈ 43.3 µM) | 25 (≈ 43.3 µM) | 6.25 (≈ 10.8 µM) | 3.13 (≈ 5.43 µM) | 3.13 (≈ 5.43 µM) | > 100 | 50 (≈ 86.7 µM) | 50 (≈ 86.7 µM) | 50 (≈ 86.7 µM) | > 100 | 25 (≈ 43.3 µM) | 25 (≈ 43.3 µM) | 50 (≈ 86.7 µM) | 12.5 (≈ 21.7 µM) | 6.25 (≈ 10.8 µM) | 6.25 (≈ 10.8 µM) | 3.13 (≈ 5.43 µM) | > 100 | 50 (≈ 86.7 µM) | 1.56 (≈ 2.7 µM) | MIC (S. aureus (H20809); 24 h): 6.25 µg/mL (≈ 10.8 µM); MCC at 24 h [1]: > 100 µg/mL; antimicrobial activity (in words) [2]: lesser activity
4 | C[C@H](CCC(=O)NCCNCCNCCN)[C@H]1CC[C@H]2[C@@H]3C[C@H](O)[C@@H]4C[C@H](O)CC[C@]4(C)[C@H]3CC[C@]12C [SM-32] | 50 (≈ 96 µM) | 50 (≈ 96 µM) | 25 (≈ 48 µM) | 25 (≈ 48 µM) | 25 (≈ 48 µM) | > 100 | 25 (≈ 48 µM) | 100 (≈ 192 µM) | 100 (≈ 192 µM) | 50 (≈ 96 µM) | 50 (≈ 96 µM) | 25 (≈ 48 µM) | 50 (≈ 96 µM) | 25 (≈ 48 µM) | 25 (≈ 48 µM) | 25 (≈ 48 µM) | 25 (≈ 48 µM) | > 100 | 25 (≈ 48 µM) | 12.5 (≈ 24 µM) | MIC (S. aureus (H20809); 24 h): 25 µg/mL (≈ 48 µM); MCC at 24 h [1]: > 100 µg/mL
5 | C[C@H](CCC(=O)NCCCNCCCCNCCCN)[C@H]1CC[C@H]2[C@@H]3[C@H](OS(=O)(=O)O)C[C@@H]4C[C@H](OS(=O)(=O)O)CC[C@]4(C)[C@H]3CC[C@]12C [SM-35] | 25 (≈ 33.9 µM) | 25 (≈ 33.9 µM) | 25 (≈ 33.9 µM) | 12.5 (≈ 17 µM) | 12.5 (≈ 17 µM) | 12.5 (≈ 17 µM) | 6.25 (≈ 8.48 µM) | 6.25 (≈ 8.48 µM) | 6.25 (≈ 8.48 µM) | 12.5 (≈ 17 µM) | 25 (≈ 33.9 µM) | 12.5 (≈ 17 µM) | 25 (≈ 33.9 µM) | 6.25 (≈ 8.48 µM) | 6.25 (≈ 8.48 µM) | 6.25 (≈ 8.48 µM) | 3.13 (≈ 4.25 µM) | > 100 | 3.13 (≈ 4.25 µM) | 3.13 (≈ 4.25 µM) | MIC (S. aureus (H20809); S. aureus (H20809), 35° C., 24 hours): 8.25 µg/mL (≈ 11.2 µM); MCC at 24 h [1]: 6.25 µg/mL

Source: US5834453A, “Methods for the manufacture and use of antimicrobial sterol conjugates” (Lehigh University, priority 1997, dated 1998)
